Usually inhibition stands for the drop in the measured response relative to a control, in per cent. What is called pKi is the negative decadic logarithm of the Ki, by convention in mol/L.

The record followed here is US20220041623A1, “INDOLE MACROCYCLIC DERIVATIVE, PREPARATION METHOD THEREOF AND APPLICATION THEREOF IN MEDICINE” (JIANGSU HENGRUI MEDICINE CO., LTD., priority 2018, published 2022).

In the test the target is T1, MCL-1 protein (Homo sapiens, UniProt Q07820).
T1 construct: Bim peptide bought from R&D, 3526/1 NA
In words: MCL-1 protein binding experiment (HTRF, MCL-1/Bim). Conditions: for inhibition at up to 10 µM / Maximum inhibition rate (%): HTRF MCL-1/Bim binding, initial concentration 10 μM; for inhibition at up to 10 µM: read-out: Maximum inhibition rate (%); for pKi: HTRF, 0.1 nM His-MCL-1, 2.5 nM bio-Bim, room temperature. Here is the method: The following method was used to determine the binding ability of the compound of the present invention to MCL-1 protein. The experimental method is briefly described as follows.
MCL-1 inhibitors can bind to MCL-1 protein to prevent the binding of MCL-1 to Bim protein. The experiment evaluates the binding ability of MCL-1 inhibitor to MCL-1 protein by detecting the binding of MCL-1 to Bim protein through HTRF method, and the activity of the compound was evaluated according to the Ki value.
The mixture was incubated at room temperature for 2 hours, followed by the detection of fluorescence signals at 620 nm and 665 nm by PHERAstar. The data was processed by GraphPad software.

pKi: −log10 of the molar value.

T1 sequence (Q07820 171-327): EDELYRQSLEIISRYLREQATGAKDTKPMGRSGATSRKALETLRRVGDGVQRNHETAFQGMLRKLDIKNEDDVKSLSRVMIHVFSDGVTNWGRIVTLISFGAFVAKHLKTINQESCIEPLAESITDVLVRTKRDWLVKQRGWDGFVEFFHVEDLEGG

`Cc1cc2cc(c1)SCc1cc(nn1C)CN(C)Cc1nn(C)c(C)c1-c1c(Cl)ccc3c1c(C)c(C(=O)O)n3CCCO2` [Example 5, 17-Chloro-5,9,13,14,22,31-hexamethyl-28-oxa-2-thia-5,6,9,12,13,24-hexaazahexacyclo[27.3.1.1^4,7.0^11,15.0^16,21.0^20.24]tetratriaconta-1(33),4(34),6,11,14,16,18,20,22,29,31-undecaene-23-carboxylic acid]: the inhibition at up to 10 µM is 99% and the pKi was 8.32.

Take `CCc1c(C(=O)O)n2c3ccc(Cl)c(c13)-c1c(nn(C)c1C)CSCc1cc(n(C)n1)CSc1cc(c3ccccc3c1)OCCC2` (single isomer, unassigned) [Example 14-1, (Ra)-17-Chloro-22-ethyl-5,13-14-trimethyl-28-oxa-2,9-dithia-5,6,12,13,24-pentaazaheptacyclo[27.7.1.1^4,7.0^11,15.0^16,21.0^20,24.0^30,35]octatriaconta-1(37),4(38),6,11,14,16,18,20,22,29,31,33,35-tridecaene-23-carboxylic acid]: the inhibition at up to 10 µM was 100% and the pKi was 9.49.

Compound `Cc1c(C(=O)O)n2c3ccc(Cl)c(c13)-c1c(nn(C)c1C)CSCc1cc(n(C)n1)CSc1cc3c(c(c1)OCCC2)CCCC3` (single isomer, unassigned) [Example 7-2, (Sa)-17-Chloro-5,13,14,22-tetramethyl-28-oxa-2,9-dithia-5,6,12,13,24-pentaazaheptacyclo[27.7.1.1^4,7.0^11,15.0^16,21.0^20,24.0^30,35]octatriaconta-1(37),4(38),6,11,14,16,18,20,22,29,35-undecaene-23-carboxylic acid] gave a pKi of 7.82. Moreover, the “Maximum inhibition rate (%)” value (10 µM) came to 100%.

For `Cc1c(C(=O)O)n2c3ccc(Cl)c(c13)-c1c(nn(C)c1C)CSCc1cc(n(C)n1)CSc1cc(c3ccccc3c1)OCCC2` [Example 2, 17-Chloro-5,13,14,22-tetramethyl-28-oxa-2,9-dithia-5,6,12,13,24-pentaazaheptacyclo[27.7.1.1^4,7.0^11,15.0^16,21.0^20,24.0^30,35]octatriaconta-1(37),4(38),6,11,14,16,18,20,22,29,31,33,35-tridecaene-23-carboxylic acid], the inhibition at up to 10 µM is 99% and the negative-log Ki (pKi) is 9.74.

`Cc1c(C(=O)O)n2c3ccc(Cl)c(c13)-c1c(nn(C)c1C)CSCc1cc(n(C)n1)CSc1cc3c(c(c1)OCCC2)CCC3` (single isomer, unassigned) [Example 13-2, (Sa)-17-Chloro-5,13,14,22-tetramethyl-28-oxa-2,9-dithia-5,6,12,13,24-pentaazaheptacyclo[27.6.1.1^4,7.0^11,15.0^16,21.0^20,24.0^30,34]heptatriaconta-1(36),4(37),6,11,14,16,18,20,22,29,34-undecaene-23-carboxylic acid] showed a pKi of 8.36. Also, the “Maximum inhibition rate (%)” value (10 µM) is recorded as 99%.

`Cc1c(C(=O)O)n2c3ccc(Cl)c(c13)-c1c(nn(C)c1C)CN(C)Cc1cc(n(C)n1)CSc1cc(c3ccccc3c1)OCCC2` (single isomer, unassigned) [Example 3-2, (Sa)-17-Chloro-5,9,13,14,22-pentamethyl-28-oxa-2-thia-5,6,9,12,13,24-hexaazaheptacyclo[27.7.1.1^4,7.0^11,15.0^16,21.0^20,24.0^30,35]octatriaconta-1(37),4(38),6,11,14,16,18,20,22,29,31,33,35-tridecaene-23-carboxylic acid]: the pKi is 7.85. The “Maximum inhibition rate (%)” value (10 µM) worked out at 99%.

For `Cc1c(C(=O)O)n2c3ccc(Cl)c(c13)-c1c(nn(C)c1C)CN(C)Cc1cc(n(C)n1)CSc1cc3c(c(c1)OCCC2)CCCC3` [Example 9, 17-Chloro-5,9,13,14,22-pentamethyl-28-oxa-2-thia-5,6,9,12,13,24-hexaazaheptacyclo[27.7.1.1^4,7.0^11,15.0^16,21.0^20,24.0^30,35]octatriaconta-1(37),4(38),6,11,14,16,18,20,22,29,35-undecaene-23-carboxylic acid], the inhibition at up to 10 µM was 100% and the pKi was 8.82.

As for `Cc1c(C(=O)O)n2c3ccc(Cl)c(c13)-c1c(nn(C)c1C)CSCc1cc(n(C)n1)CCc1cc3c(c(c1)OCCC2)CCCC3` (single isomer, unassigned) [Example 8-2, (Sa)-17-Chloro-5,13,14,22-tetramethyl-28-oxa-9-thia-5,6,12,13,24-pentaazaheptacyclo[27.7.1.1^4,7.0^11,15.0^16,21.0^20,24.0^30,35]octatriaconta-1(37),4(38),6,11,14,16,18,20,22,29,35-undecaene-23-carboxylic acid], the pKi is 7.24. The “Maximum inhibition rate (%)” value (10 µM) was found to be 98%.

Regarding `Cc1c2c(nn1C)CSCc1cc(n(C)n1)CSc1cc(c3ccccc3c1)OCCCn1c(C(=O)O)cc3c-2c(Cl)ccc31` (single isomer, unassigned) [Example 1-1, (Ra)-17-Chloro-5,13-14-trimethyl-28-oxa-2,9-dithia-5,6,12,13,24-pentaazaheptacyclo[27.7.1.1^4,7.0^11,15.0^16,21.0^20,24.0^30,35]octatriaconta-1(37),4(38),6,11,14,16,18,20,22,29,31,33,35-tridecaene-23-carboxylic acid], the inhibition at up to 10 µM amounted to 100% and the pKi is 9.44.

On to `Cc1c2c(nn1C)CSCc1cc(n(C)n1)CSc1cc(c3ccccc3c1)OCCCn1c(C(=O)O)cc3c-2c(Cl)ccc31` (single isomer, unassigned) [Example 1-2, (Sa)-17-Chloro-5,13-14-trimethyl-28-oxa-2,9-dithia-5,6,12,13,24-pentaazaheptacyclo[27.7.1.1^4,7.0^11,15.0^16,21.0^20,24.0^30,35]octatriaconta-1(37),4(38),6,11,14,16,18,20,22,29,31,33,35-tridecaene-23-carboxylic acid], for which the “Maximum inhibition rate (%)” value was found to be 100% and the pKi is 7.25.

With `Cc1c(C(=O)O)n2c3ccc(Cl)c(c13)-c1c(nn(C)c1C)CSCc1cc(n(C)n1)CSc1cc3c(c(c1)OCCC2)CCCC3` [Example 7, 17-Chloro-5,13,14,22-tetramethyl-28-oxa-2,9-dithia-5,6,12,13,24-pentaazaheptacyclo[27.7.1.1^4,7.0^11,15.0^16,21.0^20,24.0^30,35]octatriaconta-1(37),4(38),6,11,14,16,18,20,22,29,35-undecaene-23-carboxylic acid], the inhibition at up to 10 µM came to 99% and the pKi was 9.15.

Turning to `Cc1cc2cc(c1)SCc1cc(nn1C)CSCc1nn(C)c(C)c1-c1c(Cl)ccc3c1c(C)c(C(=O)O)n3CCCO2` [Example 6, 17-Chloro-5,13,14,22,31-pentamethyl-28-oxa-2,9-dithia-5,6,12,13,24-pentaazahexacyclo[27.3.1.1^4,7.0^11,15.0^16,21.0^20,24]tetratriaconta-1(33),4(34),6,11,14,16,18,20,22,29,31-undecaene-23-carboxylic acid], the inhibition at up to 10 µM came to 98% and the pKi was 8.72.

Take `Cc1c2c(nn1C)CSCc1cc(n(C)n1)CSc1cc(c3ccccc3c1)OCCCn1c(C(=O)O)cc3c-2c(Cl)ccc31` [Example 1, 17-Chloro-5,13-14-trimethyl-28-oxa-2,9-dithia-5,6,12,13,24-pentaazaheptacyclo[27.7.1.1^4,7.0^11,15.0^16,21.0^20,24.0^30,35]octatriaconta-1(37),4(38),6,11,14,16,18,20,22,29,31,33,35-tridecaene-23-carboxylic acid]: the inhibition at up to 10 µM is 100% and the negative logarithm of the Ki (pKi) was 8.62.
